NPY release and EC50 data for five compounds are collected here from patent US20110172147A1, “NEUROPEPTIDE-2 RECEPTOR (Y-2R) AGONISTS” (priority 2009, published 2011).

One test concerns hypothalamic slices. As to conditions: hypothalamic slices in vitro; cited from earlier work.
Test [1] deals with T1, hNPY2R (Homo sapiens, UniProt P49146).
T1 sequence (P49146 1-381): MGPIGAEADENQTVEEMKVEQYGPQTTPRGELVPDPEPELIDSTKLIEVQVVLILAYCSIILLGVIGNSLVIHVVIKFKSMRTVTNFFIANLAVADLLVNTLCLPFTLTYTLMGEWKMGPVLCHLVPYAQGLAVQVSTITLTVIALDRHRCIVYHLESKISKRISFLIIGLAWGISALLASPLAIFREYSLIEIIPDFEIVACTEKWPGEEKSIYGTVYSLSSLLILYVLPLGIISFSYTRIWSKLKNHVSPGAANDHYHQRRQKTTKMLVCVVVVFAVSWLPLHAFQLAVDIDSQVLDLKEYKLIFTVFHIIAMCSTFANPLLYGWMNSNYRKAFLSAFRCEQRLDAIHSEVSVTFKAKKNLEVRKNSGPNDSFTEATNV
Put plainly: CaFlux Assay (FLIPR), Y2R. Type of test: cell-based. Also on record: expressed in transfected cells; host or cells: HEK-293 stably transfected with G protein chimera Gαqi9. The procedure, abridged: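 HEK-293 cells stably co-expressing chimeric Gαqi9 and the receptor were plated overnight at 37 °C, loaded 1 h at 37 °C with Calcium-3 dye in HBSS/20 mM HEPES/5 mM probenecid, then given compound on FLIPR. Peak fluorescence rise over 100 s, baseline-subtracted, expressed as % of positive-control maximum.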

The target of another test is T2, Y5R (Homo sapiens, UniProt Q15761).
T2 sequence (Q15761 1-445): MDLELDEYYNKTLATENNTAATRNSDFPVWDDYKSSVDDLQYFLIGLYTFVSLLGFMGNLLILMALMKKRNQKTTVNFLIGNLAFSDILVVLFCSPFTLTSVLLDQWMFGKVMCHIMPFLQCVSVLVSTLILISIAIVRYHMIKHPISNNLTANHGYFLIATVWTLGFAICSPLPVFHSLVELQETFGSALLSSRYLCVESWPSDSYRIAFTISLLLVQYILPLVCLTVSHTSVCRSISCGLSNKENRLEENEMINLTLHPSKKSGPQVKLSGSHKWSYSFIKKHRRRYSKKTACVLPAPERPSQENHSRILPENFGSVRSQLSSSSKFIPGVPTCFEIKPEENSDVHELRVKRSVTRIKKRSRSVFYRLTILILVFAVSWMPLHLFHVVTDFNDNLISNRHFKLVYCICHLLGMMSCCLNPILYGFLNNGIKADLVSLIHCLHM
Put plainly: CaFlux Assay (FLIPR), Y5R. Type of test: cell-based.

The target in test [2] is T1, hNPY2R. Kind of test: cAMP Agonist Assay, HEK293/hNPY2R. In kind it is cell-based. More on the design: expressed in transfected cells; host or cells: HEK293/hNPY2R (G418 selection). Put shortly:
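HEK293/hNPY2R cells (10,000/well, overnight) stimulated 30 min at room temperature with compound plus 5 μM forskolin and 0.5 mM IBMX (1.1% DMSO final). Lysate cAMP measured by competitive chemiluminescent ELISA (AP conjugate, CSPD substrate); quadruplicates.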

A further test addresses Y4R (Homo sapiens, UniProt P50391). Put plainly: CaFlux Assay (FLIPR), Y4R. Type of test: cell-based.
A further test addresses T3, Y1R (Homo sapiens, UniProt P25929).
T3 sequence (P25929 1-384): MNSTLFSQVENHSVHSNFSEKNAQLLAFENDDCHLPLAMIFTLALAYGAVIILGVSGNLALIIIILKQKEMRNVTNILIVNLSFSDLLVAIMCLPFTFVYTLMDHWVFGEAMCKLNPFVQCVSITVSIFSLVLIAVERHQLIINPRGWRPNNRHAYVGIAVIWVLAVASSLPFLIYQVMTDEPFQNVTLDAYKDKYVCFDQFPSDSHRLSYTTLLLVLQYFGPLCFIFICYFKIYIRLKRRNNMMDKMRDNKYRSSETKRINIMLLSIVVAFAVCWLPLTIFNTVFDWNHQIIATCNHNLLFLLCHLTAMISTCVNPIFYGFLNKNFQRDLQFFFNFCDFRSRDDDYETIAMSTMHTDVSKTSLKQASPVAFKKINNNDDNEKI
Put plainly: CaFlux Assay (FLIPR), Y1R. In kind it is cell-based.

Some results are limits rather than exact numbers.

Sequence of Y4R (P50391 whole entry): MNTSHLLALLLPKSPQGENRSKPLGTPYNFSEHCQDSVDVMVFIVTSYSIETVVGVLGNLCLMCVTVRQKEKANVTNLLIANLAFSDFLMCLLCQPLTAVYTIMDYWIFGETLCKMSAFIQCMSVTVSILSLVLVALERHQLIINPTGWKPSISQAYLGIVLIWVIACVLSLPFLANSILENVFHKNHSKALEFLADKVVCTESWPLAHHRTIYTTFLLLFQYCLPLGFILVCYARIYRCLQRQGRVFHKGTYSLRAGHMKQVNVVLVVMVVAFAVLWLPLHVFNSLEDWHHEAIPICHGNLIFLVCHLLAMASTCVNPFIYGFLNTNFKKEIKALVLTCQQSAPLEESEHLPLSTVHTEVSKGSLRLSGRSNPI

Consider `N=C(N)NCCC[C@H](NC(=O)CC1(CC(=O)N2CCN(C3c4ccccc4NC(=O)c4ccccc43)CC2)CCCC1)C(=O)NCCn1c(=O)n(-c2ccccc2)n(-c2ccccc2)c1=O` (stereo partly drawn) [BIIE0246], for which the NPY release entry in the test with hypothalamic slices is listed as “increases NPY release”.

One may read the EC50 as the concentration at which the effect is half-maximal. A low value points to greater potency. Take `CCCCCCCCCCCCCCCCCCCC(=O)N[C@@H](CCC(=O)N[C@@H](CCC(=O)N[C@H](C(=O)N[C@@H](CCCCNC(=O)CCOCCOCCOCCOCCOCCOCCOCCOCCOCCOCCOCCOC)C(=O)N1CCN(c2ccc3ncn(CC(=O)N[C@@H](CCCNC(=N)N)C(=O)N[C@@H](Cc4c[nH]cn4)C(=O)N[C@@H](Cc4ccc(O)cc4)C(=O)N[C@@H](CC(C)C)C(=O)N[C@@H](CC(N)=O)C(=O)N[C@@H](Cc4c[nH]c5ccccc45)C(=O)N[C@H](C(=O)N[C@H](C(=O)N[C@@H](CCCNC(=N)N)C(=O)N[C@@H](CCC(N)=O)C(=O)N(C)[C@@H](CCCNC(=N)N)C(=O)N[C@@H](Cc4ccc(O)cc4)C(N)=O)[C@@H](C)O)C(C)C)c(=O)c3c2)CC1)[C@@H](C)CC)C(=O)O)C(=O)O` [Example 58]: the EC50 on hNPY2R [1] was 0.114 nM; at Y5R it was 4180 nM; at hNPY2R [2], 0.21 nM; on Y4R it was more than 9000 nM; at Y1R, more than 9000 nM.

Take `CCCCCCCCCCCCCCCCCCCC(=O)N[C@@H](CCC(=O)N[C@@H](CCC(=O)N[C@H](C(=O)N[C@@H](CCCCNC(=O)CCOCCOCCOCCOCCOCCOCCOCCOCCOCCOCCOCCOCCOCCOCCOCCOC)C(=O)N1CCN(c2ccc3ncn(CC(=O)N[C@@H](CCCNC(=N)N)C(=O)N[C@@H](Cc4c[nH]cn4)C(=O)N[C@@H](Cc4ccc(O)cc4)C(=O)N[C@@H](CC(C)C)C(=O)N[C@@H](CC(N)=O)C(=O)N[C@@H](Cc4c[nH]c5ccccc45)C(=O)N[C@H](C(=O)N[C@H](C(=O)N[C@@H](CCCNC(=N)N)C(=O)N[C@@H](CCC(N)=O)C(=O)N(C)[C@@H](CCCNC(=N)N)C(=O)N[C@@H](Cc4ccc(O)cc4)C(N)=O)[C@@H](C)O)C(C)C)c(=O)c3c2)CC1)[C@@H](C)CC)C(=O)O)C(=O)O` [Example 59]: the EC50 at hNPY2R [1] was 0.285 nM; on Y5R, 3880 nM; at hNPY2R [2], 0.29 nM; at Y4R, more than 9000 nM; at Y1R, more than 9000 nM.

As to `CCCCCCCCCCCCCCCCCCCC(=O)N[C@@H](CCC(=O)N[C@@H](CCC(=O)N[C@H](C(=O)N[C@@H](CCCCNC(=O)CCOCCOCCOCCOCCOCCOCCOCCOCCOCCOCCOCCOCCOCCOCCOCCOCCOCCOCCOCCOCCOCCOCCOCCOC)C(=O)N1CCN(c2ccc3ncn(CC(=O)N[C@@H](CCCNC(=N)N)C(=O)N[C@@H](Cc4c[nH]cn4)C(=O)N[C@@H](Cc4ccc(O)cc4)C(=O)N[C@@H](CC(C)C)C(=O)N[C@@H](CC(N)=O)C(=O)N[C@@H](Cc4c[nH]c5ccccc45)C(=O)N[C@H](C(=O)N[C@H](C(=O)N[C@@H](CCCNC(=N)N)C(=O)N[C@@H](CCC(N)=O)C(=O)N(C)[C@@H](CCCNC(=N)N)C(=O)N[C@@H](Cc4ccc(O)cc4)C(N)=O)[C@@H](C)O)C(C)C)c(=O)c3c2)CC1)[C@@H](C)CC)C(=O)O)C(=O)O` [Example 60], the EC50 on hNPY2R [1] is 0.18 nM; at Y5R, 2600 nM; on hNPY2R [2], 0.29 nM; on Y4R, more than 9000 nM; on Y1R it was more than 9000 nM.

Consider `CCCCCCCCCCCCCCCCCCCC(=O)N[C@@H](CCC(=O)N[C@@H](CCC(=O)N[C@H](C(=O)N[C@@H](CCCCNC(=O)CCOCCOCCOCCOCCOCCOCCOCCOCCOCCOCCOCCOCCOCCOCCOCCOCCOCCOCCOCCOCCOCCOCCOCCOC)C(=O)N1CCN(c2ccc3ncn(CC(=O)N[C@@H](CCCNC(N)=O)C(=O)N[C@@H](Cc4c[nH]cn4)C(=O)N[C@@H](Cc4ccc(O)cc4)C(=O)N[C@@H](CC(C)C)C(=O)N[C@@H](CC(N)=O)C(=O)N[C@@H](Cc4c[nH]c5ccccc45)C(=O)N[C@H](C(=O)N[C@H](C(=O)N[C@@H](CCCNC(=N)N)C(=O)N[C@@H](CCC(N)=O)C(=O)N(C)[C@@H](CCCNC(=N)N)C(=O)N[C@@H](Cc4ccc(O)cc4)C(N)=O)[C@@H](C)O)C(C)C)c(=O)c3c2)CC1)[C@@H](C)CC)C(=O)O)C(=O)O` [Example 61], for which the EC50 was 0.243 nM on hNPY2R [1]; more than 6000 nM at Y5R; 0.28 nM at hNPY2R [2]; more than 6000 nM on Y4R; more than 6000 nM on Y1R.
